In US9510598B2, “Nitrogen-containing heterocyclic compounds for plant disease control” (BAYER CROPSCIENCE AG, priority 2012, dated 2016):
Read-outs that look alike come from different tables or passages of the source.

Assay type: physicochemical
Conditions: for Log P: method [a]: HPLC/LC-MS on reversed phase at pH 2.7, 0.1% formic acid in water and acetonitrile
[1] = method [a]: HPLC/LC-MS on reversed phase at pH 2.7, 0.1% formic acid in water / acetonitrile, linear gradient 10% to 95% acetonitrile
[2] = HPLC on reversed phase columns, method [a]: pH 2.7, 0.1% formic acid in water / acetonitrile, linear gradient 10% to 95% acetonitrile
[3] = HPLC on reversed phase columns, method [a]: pH 2.7, 0.1% formic acid in water and acetonitrile, linear gradient 10% to 95% acetonitrile
[4] = linear gradient 10% to 95% acetonitrile
[5] = method [a]: HPLC/LC-MS on reversed phase at pH 2.7, 0.1% formic acid in water / acetonitrile, gradient 10% to 95% acetonitrile
[6] = reversed phase HPLC column, HPLC reversed phase, pH 2.7, 0.1% formic acid in water / acetonitrile, linear gradient 10% to 95% acetonitrile, calibration with alkan-2-ones, read-out: log P (HCOOH)

Structure (SMILES) | log P [2] | log P [3] | other results
CCn1cc(CNC(=O)C2(C)CC(c3ccc4ncc(-c5cccs5)cc4c3)=NO2)c(C)n1 (centres unmarked) [compound 142] | – | – | log P [1]: 2.63^[a]
C#Cc1cnc2ccc(C3=NOC(C)(C(=O)NCc4cn(CC)nc4SC)C3)cc2c1 (centres unmarked) [compound 635] | 2.51[a] | – | –
C#Cc1cnc2ccc(C3=NOC(C)(C(=O)NCc4ccc5ccccc5n4)C3)cc2c1 (centres unmarked) [compound 253] | 2.45^[a] | – | –
C#Cc1cnc2ccc(C3=NOC(C)(C(=O)NCc4cccnc4OC)C3)cc2c1 (centres unmarked) [compound 680] | – | 2.52[a] | –
CON(OC)C(=O)C1(C)CC(c2cc3cc(Br)cnc3c(F)c2F)=NO1 (centres unmarked) [compound 9] | – | – | Log P [4]: 2.92^[a]
C#Cc1cnc2c(C)cc(C3=NOC(OC)(C(=O)NC(C)C)C3)cc2c1 (centres unmarked) [compound 604] | 2.94[a] | – | –
CC1(C(=O)NCc2ccc(OC(F)(F)F)cc2)CC(c2ccc3ncc(Br)cc3c2)=NO1 (centres unmarked) [compound 101] | – | – | log P [1]: 3.92^[a]
C#Cc1cnc2ccc(C3=NOC(C)(C(=O)NCCCN(C)C)C3)cc2c1 (racemic) [compound 363] | – | – | log P [5]: 1.11[a]
CC1(C(=O)NCc2ccccc2Oc2ccccc2)CC(c2ccc3ncc(Br)cc3c2)=NO1 (centres unmarked) [compound 207] | – | – | log P [1]: 4.32^[a]
C#Cc1cnc2ccc(C3=NOC(C)(C(=O)NCc4cn(CC)nc4Br)C3)cc2c1 (centres unmarked) [compound 634] | 2.56[a] | – | –
CC(NC(=O)C1(C)CC(c2ccc3ncc(Br)cc3c2)=NO1)c1cccc2ccccc12 (centres unmarked) [compound 340] | 4.09[a] | – | –
C#Cc1cnc2ccc(C3=NOC(C)(C(=O)NC(COc4ccc(F)cc4)C4CC4)C3)cc2c1 (centres unmarked) [compound 318] | 3.58[a] | – | –
C#Cc1cnc2ccc(C3=NOC(C)(C(=O)NC(C)c4ccc(OC(F)(F)F)cc4)C3)cc2c1 (centres unmarked) [compound 342] | 3.71[a] | – | –
C#Cc1cnc2ccc(C3=NOC(C)(C(=O)NNC(C)C4CC4)C3)cc2c1 (centres unmarked) [compound 770] | – | 2.21[a] | –
CC(C)NC(=O)C1(C)CC(c2ccc3ncc(-c4cncnc4)cc3c2)=NO1 (centres unmarked) [Compound No. 258] | – | – | chromatographic logP (pH 2.7): 1.79
CCn1cc(CNC(=O)C2(C)CC(c3ccc4ncc([S+](C)[O-])cc4c3)=NO2)c(C)n1 (centres unmarked) [compound 145] | – | – | log P [1]: 1.34^[a]
CC1(C(=O)NC(C#N)c2ccccc2)CC(c2ccc3ncc(Br)cc3c2)=NO1 (centres unmarked) [compound 356] | 3.25[a] | – | –
C#Cc1cnc2ccc(C3=NOC(C)(C(=O)NC(CN(C)c4ccccc4)C4CC4)C3)cc2c1 (centres unmarked) [compound 359] | 3.69[a] | – | –
C#Cc1cnc2ccc(C3=NOC(C)(C(=O)NCc4ccc(Oc5ccccc5)cc4)C3)cc2c1 (centres unmarked) [compound 175] | – | – | log P [1]: 3.8^[a]
C#Cc1cnc2ccc(C3=NOC(C)(C(=O)NCc4ccncc4F)C3)cc2c1 (centres unmarked) [compound 804] | – | 2.02[a] | –
CCC1C(c2ccc3ncc(Br)cc3c2)=NOC1(C)C(=O)NC(C)C (centres unmarked) [compound 283] | 3.76[a] | – | –
CC1(C(=O)NCc2cccnc2)CC(c2ccc3ncc(Br)cc3c2)=NO1 (centres unmarked) [compound 92] | – | – | log P [1]: 1.41^[a]
O=Cc1ccc2ncc(I)cc2c1 [3-iodoquinoline-6-carbaldehyde] | – | – | chromatographic logP [6]: 2.12
Cc1cc(C2=NOC(C)(C(=O)NC3CCC3)C2)cc2cc(Br)cnc12 (centres unmarked) [compound 579] | 3.71[a] | – | –

Structure (SMILES) | log P [2] | log P [3] | other results
C#Cc1cnc2ccc(C3=NOC(C)(C(=O)NC(C#N)c4ccccc4)C3)cc2c1 (centres unmarked) [compound 324] | 2.88[a] | – | –
C#Cc1cnc2c(Cl)cc(C3=NOC(OC)(C(=O)NCCCOCC)C3)cc2c1 (centres unmarked) [compound 594] | 2.88[a] | – | –
CCn1cc(CNC(=O)C23OCCCC2C(c2ccc4ncc(Br)cc4c2)=NO3)c(C)n1 (centres unmarked) [Compound No. 266] | – | – | chromatographic logP [6]: 2.59
CC1(C(=O)NCCc2ccc(OC(F)(F)F)cc2)CC(c2ccc3ncc(Br)cc3c2)=NO1 (centres unmarked) [compound 211] | – | – | log P [1]: 3.96^[a]
CC1(C(=O)NCc2nccs2)CC(c2ccc3ncc(Br)cc3c2)=NO1 (centres unmarked) [compound 488] | – | – | log P [5]: 2.32[a]
C#Cc1cnc2c(C)cc(C3=NOC(OC)(C(=O)NC4CCC4)C3)cc2c1 (centres unmarked) [compound 612] | 3.15[a] | – | –
C#Cc1cnc2ccc(C3=NOC(C)(C(=O)NC(C)(C)C(C)C)C3)cc2c1 (centres unmarked) [compound 320] | 3.71[a] | – | –
CC(C)C1(C(=O)NC2CC2)CC(c2ccc3ncc(Br)cc3c2)=NO1 (centres unmarked) [compound 65] | – | – | log P [1]: 3.11^[a]
Cc1cc2cc(CNC(=O)C3(C)CC(c4ccc5ncc(Br)cc5c4)=NO3)ccc2[nH]1 (centres unmarked) [compound 114] | – | – | log P [1]: 3.17^[a]
CCC(C)NC(=O)C1(C(F)(F)F)CC(c2cc3cc(Br)cnc3c(F)c2F)=NO1 (centres unmarked) [compound 15] | – | – | Log P [4]: 4.04^[a]
C#Cc1cnc2ccc(C3=NOC(C)(C(=O)NCc4ccncn4)C3)cc2c1 (centres unmarked) [compound 663] | 1.78[a] | – | –
CNC(=O)C1(C)CC(c2ccc3ncccc3c2)=NO1 (centres unmarked) [compound 2] | – | – | Log P [4]: 1.3^[a]
Cc1cc(C2=NOC(C)(C(=O)NC(C)C)C2)cc2cc(Br)cnc12 (centres unmarked) [compound 573] | 3.51[a] | – | –
CC1(C(=O)NCc2ncc(C(F)(F)F)cc2Cl)CC(c2ccc3ncc(Br)cc3c2)=NO1 (centres unmarked) [compound 156] | – | – | log P [1]: 3.89^[a]
C#Cc1cnc2ccc(C3=NOC(C)(C(=O)NCc4ccnc(OC)c4)C3)cc2c1 (centres unmarked) [compound 674] | 2.26[a] | – | –
C#Cc1cnc2ccc(C3=NOC(C)(C(=O)NCc4cnc(Cl)cn4)C3)cc2c1 (centres unmarked) [compound 787] | – | 2.43[a] | –
C#Cc1cnc2c(Cl)cc(C3=NOC(OC)(C(=O)NCC4COC(C)(C)O4)C3)cc2c1 (centres unmarked) [compound 589] | 2.82[a] | – | –
C#Cc1cnc2ccc(C3=NOC(C)(C(=O)NCc4cc(C(C)C)ccn4)C3)cc2c1 (centres unmarked) [compound 793] | – | 1.84[a] | –
C#Cc1cnc2ccc(C3=NOC(C)(C(=O)Nc4cnn(CC)c4)C3)cc2c1 (centres unmarked) [compound 699] | – | 2.17[a] | –
CC(C)NC(=O)C1(C)CC(c2ccc3ncc(Br)c(Cl)c3c2)=NO1 (centres unmarked) [compound 736] | – | 2.39[a] | –
C#Cc1cnc2ccc(C3=NOC(C)(C(=O)NCCc4ccc(Cl)cc4)C3)cc2c1 (centres unmarked) [compound 210] | – | – | log P [1]: 3.25^[a]
CC(C)NC(=O)C1(C)CC(c2ccc3nc(C#N)c(I)cc3c2)=NO1 (centres unmarked) [compound 510] | – | – | log P [5]: 3.04[a]
C#Cc1cnc2ccc(C3=NOC(C)(C(=O)NCc4ccc(CC)cn4)C3)cc2c1 (centres unmarked) [compound 747] | – | 1.82[a] | –
C#Cc1cnc2ccc(C3=NOC(C)(C(=O)NCc4nncn4CC)C3)cc2c1 (centres unmarked) [compound 159] | – | – | log P [1]: 1.54^[a]

Further lines, with some results ahead:

log P [2] | log P [3] | Structure (SMILES) | other results
– | 1.85[a] | C#Cc1cnc2ccc(C3=NOC(OC)(C(=O)NCc4cnccn4)C3)cc2c1 (centres unmarked) [compound 708] | –
– | 2.33[a] | CC(C)c1cccc(CNC(=O)C2(C)CC(c3ccc4ncc(Br)cc4c3)=NO2)n1 (centres unmarked) [compound 686] | –
3.96[a] | – | CCC(C)N(OC)C(=O)C1(C)CC(c2ccc3ncc(Br)cc3c2)=NO1 (centres unmarked) [compound 659] | –
– | 2.48[a] | CC1(C(=O)N2CCOCC2)CC(c2ccc3ncc(Br)cc3c2)=NO1 (centres unmarked) [compound 771] | –
– | 1.95[a] | CC1(C(=O)NCc2cncnc2)CC(c2ccc3ncc(Br)cc3c2)=NO1 (centres unmarked) [compound 692] | –
3.19[a] | – | CCOCCCNC(=O)C1(OC)CC(c2cc(Cl)c3ncc(Br)cc3c2)=NO1 (centres unmarked) [compound 577] | –
3.58[a] | – | COC1(C(=O)NC2CCC2)CC(c2cc(C)c3ncc(Br)cc3c2)=NO1 (centres unmarked) [compound 603] | –
– | 2.88[a] | CC1(C(=O)N/C(=N/O)C(C)(C)C)CC(c2ccc3ncc(Br)cc3c2)=NO1 (centres unmarked) [compound 739] | –
– | 3.03[a] | COC1(C(=O)NCCC2CC2)CC(c2ccc3ncc(Br)cc3c2)=NO1 (racemic) [compound 822] | –
– | 1.72[a] | CC1(C(=O)NCc2ccc(O)nc2)CC(c2ccc3ncc(Br)cc3c2)=NO1 (centres unmarked) [compound 807] | –
2.88[a] | – | CC(=O)C1(C(=O)NC(C)C)CC(c2ccc3ncc(Br)cc3c2)=NO1 (centres unmarked) [compound 281] | –
3.19[a] | – | COCC#CC(C)(C)NC(=O)C1(C)CC(c2ccc3ncc(Br)cc3c2)=NO1 (centres unmarked) [compound 299] | –
– | 1.91[a] | CC1(C(=O)NCc2cccnc2C#N)CC(c2ccc3ncc(Br)cc3c2)=NO1 (centres unmarked) [compound 814] | –
– | 2.51[a] | CCn1cc(CNC(=O)C2(C#N)CC(c3ccc4ncc(Br)cc4c3)=NO2)c(C)n1 (centres unmarked) [compound 709] | –
– | 2.51[a] | CC1(C(=O)NCc2cccnc2F)CC(c2ccc3ncc(Br)cc3c2)=NO1 (centres unmarked) [compound 786] | –
– | 2.37[a] | C#CC1(NC(=O)C2(C)CC(c3ccc4ncc(Br)cc4c3)=NO2)COC1 (centres unmarked) [compound 722] | –
4.21[a] | – | CC(C)CCC(C)NC(=O)C1(C)CC(c2ccc3ncc(Br)cc3c2)=NO1 (centres unmarked) [compound 328] | –
2.28[a] | – | COc1ccc(CNC(=O)C2(C)CC(c3ccc4ncc(Br)cc4c3)=NO2)nn1 (centres unmarked) [compound 675] | –
2.30[a] | – | CC1(C(=O)NCCF)CC(c2ccc3ncc(Br)cc3c2)=NO1 (centres unmarked) [compound 641] | –
– | 2.50[a] | CC(C)/C(=N\O)NC(=O)C1(C)CC(c2ccc3ncc(Br)cc3c2)=NO1 (centres unmarked) [compound 738] | –
– | 2.25[a] | COc1ncc(CNC(=O)C2(C)CC(c3ccc4ncc(Br)cc4c3)=NO2)cn1 (centres unmarked) [compound 688] | –
– | 3.96[a] | C#CC(CC)(CC)NC(=O)C1(C)CC(c2ccc3ncc(Br)cc3c2)=NO1 (centres unmarked) [compound 717] | –
– | 1.60[a] | CN(C)c1ncccc1CNC(=O)C1(C)CC(c2ccc3ncc(Br)cc3c2)=NO1 (centres unmarked) [compound 780] | –
– | 3.57[a] | CC1(C(=O)NC(C2CC2)C2CC2)CC(c2ccc3ncc(Br)cc3c2)=NO1 (centres unmarked) [compound 773] | –
2.41[a] | – | C#CC1(C(=O)NCc2cnc(C)cn2)CC(c2ccc3ncc(Br)cc3c2)=NO1 (centres unmarked) [compound 628] | –
2.91[a] | – | C=C(C)C1(C(=O)NCc2cn(CC)nc2C)CC(c2ccc3ncc(Br)cc3c2)=NO1 (centres unmarked) [compound 526] | –
